This is an account of results in patent publication US10695310B2, “D-serine treatment for neurological disorders that cause seizures” (Florida State University Research Foundation, Inc., priority 2013, dated 2020).

The subject of one experiment is pilocarpine treated rats. Kind of experiment: Video-monitored seizure activity in pilocarpine treated rats (temporal lobe epilepsy model), D-serine infused at the medial entorhinal cortex. In kind it is in vivo, Sprague-Dawley rats. How it is done: (§1) Male Sprague-Dawley rats weighing about 200 grams were treated with a single systemic treatment of the cholinergic muscarinic agonist pilocarpine to mimic temporal lobe epilepsy as described by Kumar and Buckmaster in Journal of Neuroscience 26: 4613-4623 (2006), which is incorporated by reference herein. The rats were unilaterally implanted with a brain cannula and allowed to recover for three days prior to being treated with pilocarpine. The pilocarpine dose was 380 mg/kg. Following control of status epilepticus with diazepam and a latent period, 90% of the pilocarpine treated rats developed chronic spontaneous seizures with an underlying pathology that mimicked the kind seen in human patients with temporal lobe epilepsy. After pilocarpine treatment, a test group of rats was administered D-serine and a control group of rats was administered aCSF daily for 12 days. The first administration occurred two hours after pilocarpine treatment. The rats were video-monitored forty hours per week for frank seizure activity for the duration of the infusions.

The subject of experiment [1] is LIII of the medial entorhinal cortex. Briefly: Stereological cell count in LIII of the medial entorhinal cortex, Nissl-stained brain slices of pilocarpine treated rats. In kind it is in vivo, Sprague-Dawley rats. How it is done: as §1, with “infusions. Following the treatment regimen, the rats were euthanized and their brains removed following intra-aortal perfusion with a fixative. Horizontal brain slices 50 micrometers thick from both groups were Nissl-stained for stereological quantification of cell populations in LIII of the medial entorhinal cortex.” for “infusions.”

For experiment [2], the system named is GluN3-containing triheteromeric NMDARS. Kind of experiment: NMDAR-mediated EPSC at L1 synapses. In kind it is cell-based, Sprague-Dawley rats. Conditions: 10 and 100 micromolar; pure NMDAR-mediated EPSC, +30 mV; suppression greatest at the higher concentration. The text has this:
(§2) FIG. 6 is a set of graphs showing the effect of D-serine on EPSCs for L1 and Str synapses of rat brains. The left panel depicts the average consecutive records (≤10) of pure NMDAR-mediated EPSC (pharmacologically isolated in a mixture containing NBQX and picrotoxin—PTX 50 micromolar, —to block AMPA-kainite receptors and GABAA-mediated inhibition) evoked in a single neuron (+30 mV) under the indicated conditions. The middle panel depicts the average percentage change in amplitude for both responses and the time course of these changes with D-serine administration times marked by the shaded region on the time plots.
(§3) The NMDARs at L1 inputs are GluN3-containing triheteromeric NMDARS, whereas the NMDARs at Str inputs are conventional diheteroemric NMDARs. To directly investigate Ca(2+)-permeability of NMDARs at L1 and Str synapses of Sprague-Dawley rats, shifts in reversal potential (Erev) of the synaptically activated currents were measured during local perfusion of isosmotic solutions with different extracellular Ca(2+) concentrations.

For experiment [3], the target named is T1, conventional diheteroemric NMDARs (Rattus norvegicus, UniProt P35439).
T1 construct: effect of D-serine on EPSCs for L1 and Str synapses of rat brains; from tissue; host or cells: rat brain; synaptic currents recorded from single neurons (Str input)
Kind of experiment: NMDAR-mediated EPSC at Str synapses. In kind it is cell-based, Sprague-Dawley rats. To be noted: 10 and 100 micromolar; pure NMDAR-mediated EPSC, +30 mV.
Text: as §2, §3

Regarding `N[C@H](CO)C(=O)O` [D-serine], in the experiment on pilocarpine treated rats (D-serine daily for 12 days, 90% without D-serine), the “percentage of pilocarpine treated rats that developed seizures” value worked out at 25%. Moreover, the rats seizure-free with pilocarpine treated rats (pilocarpine treated rats, D-serine daily for 12 days via brain cannula, video-monitored forty hours per week) is listed as 75%. The “Mean est. cell count (left + right)” value in experiment [1] (LIII of medial entorhinal cortex, after 12 days treatment following pilocarpine, naive control 159 ± 21, vehicle 77 ± 1) is reported as 140 ± 10. Besides, the “reduction of cell loss in LIII” value in experiment [1] (after pilocarpine treatment) is “about 80%”. Moreover, the “cell loss in LIII from brain slice images” value in experiment [1] (left medial entorhinal cortex of cannulated rats, FIG. 3) is on record as “prevented cell loss in LIII”. For the same compound, the “effect on L1 EPSCs” value in experiment [2] is listed as “significantly suppressed”. In experiment [3], the “effect on Str EPSCs” value is on record as “neither consistent nor statistically significant”.
